Results published in patent US9505781B2, “Compositions comprising thienopyrimidine and thienopyridine compounds and methods of use thereof” (The Regents of the University of Michigan, priority 2013, dated 2016).

Molecular target: T1, menin-MLL interaction (Homo sapiens, UniProt O00255)
T1 sequence (O00255 1-610): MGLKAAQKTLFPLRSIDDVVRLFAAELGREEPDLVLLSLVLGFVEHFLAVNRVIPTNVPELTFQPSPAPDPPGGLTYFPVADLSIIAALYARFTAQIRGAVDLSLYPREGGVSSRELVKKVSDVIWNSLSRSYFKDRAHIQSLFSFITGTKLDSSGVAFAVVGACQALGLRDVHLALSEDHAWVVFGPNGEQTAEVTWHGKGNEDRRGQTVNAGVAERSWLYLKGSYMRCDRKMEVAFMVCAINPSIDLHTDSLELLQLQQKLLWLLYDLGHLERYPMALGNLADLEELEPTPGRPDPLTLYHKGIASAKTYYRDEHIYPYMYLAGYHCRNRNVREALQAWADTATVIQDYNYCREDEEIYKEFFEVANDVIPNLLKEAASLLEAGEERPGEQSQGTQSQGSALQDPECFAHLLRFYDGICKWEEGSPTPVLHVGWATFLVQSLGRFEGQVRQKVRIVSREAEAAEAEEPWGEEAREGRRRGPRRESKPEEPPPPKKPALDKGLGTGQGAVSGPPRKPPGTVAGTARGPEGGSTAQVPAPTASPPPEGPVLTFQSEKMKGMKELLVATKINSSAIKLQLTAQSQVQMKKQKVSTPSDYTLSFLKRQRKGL
Experiment: biochemical
Text: Compounds that inhibit the interaction decrease the fluorescence anisotropy which is being used as a read-out for compound screening and for IC50 determination.

FC(F)(F)Cc1cc2c(N[C@H]3CCN(Cc4ccccc4)C[C@@H]3OCc3ccccc3)ccnc2s1 [Compound 174]
IC50: 100 to 500 nM

N#Cc1nc2ccc(CN3CCC(Nc4ncnc5sc(CC(F)(F)F)cc45)CC3)cc2o1 [Compound 248]
IC50: 500 to 2000 nM

N#Cc1cc2cc(CN3CCC(N(CCN4CCOCC4)c4ncnc5sc(CC(F)(F)F)cc45)CC3)ccc2[nH]1 [Compound 238]
IC50: 100 to 500 nM

O=C(Cc1ccccc1)N1CCN(c2ncnc3sc(CC(F)(F)F)cc23)CC1 [Compound 67]
IC50: 100 to 500 nM

N#Cc1cc2cc(CN3CCC(Nc4ncnc5sc(CC(F)(F)F)cc45)CC3)ccc2n1Cc1cnn(CCOCC2CC2)c1 [Compound 318]
IC50: < 100 nM

N#Cc1cc2cc(CN3CCC(Nc4ncnc5sc(CC(F)(F)F)cc45)CC3)ccc2n1Cc1nn[nH]n1 [Compound 240]
IC50: 100 to 500 nM

N#Cc1cc2c(CO)c(CN3CCC(Nc4ncnc5sc(CC(F)(F)F)cc45)CC3)ccc2[nH]1 [Compound 290]
IC50: < 100 nM

CC1(C)CN=C(N2CCN(c3ncnc4sc(CCCc5ccccc5)cc34)CC2)S1 [Compound 37]
IC50: 500 to 2000 nM

O=C(N1CCCCC1)N1CCN(c2ncnc3sc(CC(F)(F)F)cc23)CC1 [Compound 91]
IC50: 500 to 2000 nM

Cc1c(CN2CCC(Nc3ncnc4sc(CC(F)(F)F)cc34)CC2)ccc2c1cc(C#N)n2Cc1cc(Cc2ccncc2)[nH]n1 [Compound 345]
IC50: < 100 nM

Cc1c(CN2CCC(Nc3ncnc4sc(CC(F)(F)F)cc34)CC2)ccc2c1cc(C#N)n2CCN1CCN(C(=O)Cc2ccccc2)CC1 [Compound 340]
IC50: < 100 nM

NS(=O)(=O)Cc1ccc(CC(=O)N2CCN(C3=NC=NC4SC(CC(F)(F)F)=CC34)CC2)c(Cl)c1 (centres unmarked) [Compound 286]
IC50: < 100 nM

FC(F)(F)Cc1cc2c(N[C@H]3CCN(Cc4ccccc4)C[C@@H]3NCc3ccccc3)ncnc2s1 [Compound 167]
IC50: 100 to 500 nM

CC(C)CN(c1ccc(CC(=O)N2CCN(c3ncnc4sc(CC(F)(F)F)cc34)CC2)cc1)S(C)(=O)=O [Compound 101]
IC50: 500 to 2000 nM

N#Cc1cc2c(Br)c(CN3CCC(Nc4ncnc5sc(CC(F)(F)F)cc45)CC3)ccc2n1CC(N)=O [Compound 307]
IC50: < 100 nM

Cc1ccccc1CN1CCC(Nc2ncnc3sc(CC(C)(F)F)cc23)CC1 [Compound 155]
IC50: 500 to 2000 nM

NS(=O)(=O)c1ccc(CN2CCC(CNc3ncnc4sc(CC(F)(F)F)cc34)CC2)c(Cl)c1 [Compound 253]
IC50: 100 to 500 nM

FC(F)(F)Cc1cc2c(NC3CCN(Cc4cccs4)CC3)ncnc2s1 [Compound 132]
IC50: 100 to 500 nM

N#Cc1cc2cc(CN3CCC(Nc4ncnc5sc(CC(F)(F)F)cc45)CC3)ccc2n1Cc1cn[nH]c1 [Compound 202]
IC50: < 100 nM

CC(C(N)=O)n1c(C#N)cc2cc(CN3CCC(Nc4ncnc5sc(CC(F)(F)F)cc45)CC3)ccc21 (centres unmarked) [Compound 247]
IC50: 100 to 500 nM

Cc1c(CN2CCC(Nc3ncnc4sc(CC(F)(F)F)cc34)CC2)ccc2c1cc(C#N)n2CCN1CCS(=O)(=O)CC1 [Compound 368]
IC50: < 100 nM

CS(=O)(=O)Nc1ccc(CC(=O)N2CCN(c3ncnc4sc(CC(F)(F)F)cc34)CC2)cc1 [Compound 45]
IC50: < 100 nM

Cc1c(CN2CCC(Nc3ncnc4sc(CC(F)(F)F)cc34)CC2)ccc2c1cc(C#N)n2CC(O)(CO)CCC1CCCCC1 (centres unmarked) [Compound 346]
IC50: < 100 nM

N#Cc1cc2c(Cl)c(CN3CCC(Nc4ncnc5sc(CC(F)(F)F)cc45)CC3)ccc2n1CC(N)=O [Compound 225]
IC50: < 100 nM

Cn1ccnc1Cn1c(C#N)cc2cc(CN3CCC(Nc4ncnc5sc(CC(F)(F)F)cc45)CC3)ccc21 [Compound 203]
IC50: < 100 nM

COCCOCCn1nc(Cn2c(C#N)cc3cc(CN4CCC(Nc5ncnc6sc(CC(F)(F)F)cc56)CC4)ccc32)cc1C [Compound 411]
IC50: 100 to 500 nM

Cc1c(CN2CCC(Nc3ncnc4sc(CC(F)(F)F)cc34)CC2)ccc2c1cc(C#N)n2CCN1CCSCC1 [Compound 360]
IC50: < 100 nM

NS(=O)(=O)Cc1ccc(CC(=O)N2CCN(c3ncnc4sc(CC(F)(F)F)cc34)CC2)c(F)c1 [Compound 78]
IC50: 100 to 500 nM

Cc1c(CN2CCC(Nc3ncnc4sc(CC(F)(F)F)cc34)CC2)c(O)cc2c1cc(C#N)n2Cc1cn[nH]c1 [Compound 388]
IC50: < 100 nM

Cc1c(CN2CCC(Nc3ncnc4sc(CCF)cc34)CC2)ccc2[nH]c(C#N)cc12 [Compound 423]
IC50: < 100 nM

CC(=O)Nc1ccc(CN2CCC(Nc3ncnc4sc(CC(F)(F)F)cc34)CC2)cc1 [Compound 130]
IC50: 100 to 500 nM

FC(F)(F)c1nnc(N2CCN(c3ncnc4sc(C(F)(F)C(F)(F)F)cc34)CC2)s1 [Compound 24]
IC50: 500 to 2000 nM

COc1ccc(CN2CCC(CNc3ncnc4sc(CC(F)(F)F)cc34)CC2)cc1 [Compound 273]
IC50: 500 to 2000 nM

OCc1cnc2sc(CC(F)(F)F)cc2c1NC1CCN(Cc2ccccc2)CC1 [Compound 280]
IC50: < 100 nM

N#Cc1cc2cc(CN3CCC(Nc4ncnc5sc(CC(F)(F)F)cc45)CC3)ccc2n1CC(N)=O [Compound 189]
IC50: < 100 nM

N#Cc1cc2cc(CN3CCC(Nc4ncnc5sc(CC(F)(F)F)cc45)CC3)ccc2n1Cc1cc(OCCCCC2CC2)n[nH]1 [Compound 415]
IC50: 100 to 500 nM

O=C1NCCC1c1ccc(CC(=O)N2CCN(c3ncnc4sc(CC(F)(F)F)cc34)CC2)cc1 (centres unmarked) [Compound 99]
IC50: 500 to 2000 nM

Cc1c(CN2CCC(Nc3ncnc4sc(CC(F)(F)F)cc34)CC2)ccc2c1cc(C#N)n2CC(O)CO (centres unmarked) [Compound 300]
IC50: < 100 nM

CN(C)S(=O)(=O)Nc1ccc(CC(=O)N2CCN(c3ncnc4sc(CC(F)(F)F)cc34)CC2)cc1 [Compound 51]
IC50: < 100 nM

COc1ccc(CC(=O)N2CCN(c3ncnc4sc(CC(F)(F)F)cc34)CC2)cc1 [Compound 74]
IC50: 100 to 500 nM

N#Cc1[nH]c2ccc(CN3CCC(Nc4ncnc5sc(CC(F)(F)F)cc45)CC3)cc2c1F [Compound 176]
IC50: < 100 nM

FC(F)(F)Cc1sc2ncnc3c2c1CNN3C1CCN(Cc2ccccc2)CC1 [Compound 158]
IC50: 500 to 2000 nM

FC(F)(F)Cc1cc2c(NC3CCN(Cc4ccccc4C(F)(F)F)CC3)ncnc2s1 [Compound 148]
IC50: 500 to 2000 nM

CC1(C)CN=C(N2CCN(c3ncnc4sc(CCc5ccccc5)cc34)CC2)S1 [Compound 35]
IC50: 500 to 2000 nM

Cc1c(CN2CCC(Nc3ncnc4sc(CC(F)(F)F)cc34)CC2)ccc2c1cc(C#N)n2Cc1cn(C)nn1 [Compound 303]
IC50: < 100 nM

COc1cc2[nH]c(C#N)cc2c(C)c1CN1CCC(Nc2ncnc3sc(CC(F)(F)F)cc23)CC1 [Compound 383]
IC50: < 100 nM

FC(F)(F)Cc1cc2c(N3CCN(c4nnc(C5CC5)s4)CC3)ncnc2s1 [Compound 3]
IC50: 100 to 500 nM

FC(F)(F)Cc1cc2c(NC3CCN(Cc4ccc(N5CCCCC5)cc4)CC3)ncnc2s1 [Compound 145]
IC50: 500 to 2000 nM

N#CCc1ccc2[nH]cc(CN3CCC(Nc4ncnc5sc(CC(F)(F)F)cc45)CC3)c2c1 [Compound 252]
IC50: 500 to 2000 nM

N#Cc1cc2c(C=O)c(CN3CCC(Nc4ncnc5sc(CC(F)(F)F)cc45)CC3)ccc2n1Cc1cn[nH]c1 [Compound 352]
IC50: < 100 nM

CC1(C)CN=C(N2CCN(c3ncnc4sc(CCC5CC5)cc34)CC2)S1 [Compound 36]
IC50: 500 to 2000 nM

O=C(CC1CCCCC1)N1CCN(c2ncnc3sc(CC(F)(F)F)cc23)CC1 [Compound 89]
IC50: 500 to 2000 nM

Cc1c(CN2CCC(Nc3ncnc4sc(CC(F)(F)F)cc34)CC2)ccc2c1cc(C#N)n2CCN1CCN(C(=O)CCC2CCCCC2)CC1 [Compound 339]
IC50: < 100 nM
